Assay results published in ChEMBL document CHEMBL1130982, “Diversity of C-linked neoglycopeptides for the exploration of subsite-assisted carbohydrate binding interactions” (Bioorg Med Chem Lett, 1998).

Assay: Inhibitory activity against binding of horseradish peroxidase labelled Maclura pomifera, isolated from the seeds of osage orange tree to poly (acrylamide-co-allyl alpha-Galactopyranoside

Row | SMILES | IC50 [µM]
1 | CC(=O)N[C@@H](CCCCNC(=O)c1cc(NC(=O)CNC(=O)[C@H](C)NC(=O)C[C@H]2O[C@H](CO)[C@H](O)[C@H](O)[C@H]2O)cc(NC(=O)CNC(=O)[C@@H](C)NC(=O)C[C@H]2O[C@H](CO)[C@H](O)[C@H](O)[C@H]2O)c1)C(=O)NCC(=O)NCc1ccccc1 | 2840
2 | CCN(CC)C(=O)CC1OC(CO)C(O)C(O)C1O (stereo unspecified) | 2570
3 | CC(=O)N[C@@H](CCCCNC(=O)CC1OC(CO)C(O)C(O)C1O)C(=O)NCC(N)=O (stereo partly specified) | 4180
4 | CCN(CC)C(=O)CNC(=O)[C@H](CCCCNC(=O)CN(CCC1OC(CO)C(O)C(O)C1O)C(=O)CC1OC(CO)C(O)C(O)C1O)NC(C)=O (stereo partly specified) | 4310

Now from value to compound:

Row | IC50 [µM] | SMILES
5 | 1480 | CC(=O)N[C@@H](CCCCN(CCC1OC(CO)C(O)C(O)C1O)CCC1OC(CO)C(O)C(O)C1O)C(=O)NCC(N)=O (stereo partly specified)
6 | 1500 | CC(=O)N[C@@H](CCCCNC(=O)c1cc(NC(=O)CNC(=O)[C@H]2CCCN2C(=O)C[C@@H]2O[C@@H](CO)[C@H](O)[C@H](O)[C@@H]2O)cc(NC(=O)CNC(=O)[C@@H]2CCCN2C(=O)C[C@H]2O[C@@H](CO)[C@H](O)[C@H](O)[C@@H]2O)c1)C(=O)NCC(=O)NCc1ccccc1
